Test results as given in article PMC11337205, “Unraveling Interspecies Differences in the Phase I Hepatic Metabolism of Alternariol and Alternariol Monomethyl Ether: Closing Data Gaps for a Comprehensive Risk Assessment” (Chemical Research in Toxicology, 2024).
Like-named read-outs stand apart in the source and are kept apart here.

Key:
[1] = Phase I metabolism kinetics (parent toxin loss) in NADPH-fortified rat liver microsomes, LC-MS/MS; type: in vitro ADME, Sprague–Dawley rat; conditions: for microsomal CLint: Sprague-Dawley, rat, pH 7.4, rat LMs, read-out: CLint (intrinsic clearance)
Procedure: Pooled human LMs and pooled Sprague–Dawley rat hepatic microsomes, both originating from male donors, were purchased from Sigma-Aldrich (St. Louis, MO, USA) and Gibco, Thermo Fisher Scientific (Waltham, MA, USA), respectively. Porcine LMs were prepared according to an in-house-developed protocol based on the publication of Knights et al.[32] The liver of an approximately four-month-old female “Large White” (or “German Edelschwein”) pig was obtained from a local slaughterhouse. After slaughtering, the liver was placed on ice for about an hour, kept in ice-cold 50 mM tris(hydroxymethyl)aminomethane hydrochloride (Tris–HCl) (pH 7.4) for an additional hour while being transported, and processed immediately.
(§1) The kinetics of the phase I metabolism of AOH and AME was investigated by incubating human, rat (both 1 mg protein/mL), and porcine LMs (2 mg protein/mL) with 1, 10, 20, 50, and 100 μM AOH or 1, 10, 20, and 50 μM AME based on the protocol by Al-Subeihi et al.[34] The incubation solution contained a final concentration of 3 mM NADPH and 1 mM ascorbic acid in 200 mM Tris–HCl (pH 7.4). After preincubation (37 °C, 1 min, mixing at 250–300 rpm), the toxin stock was added in a 1:100 dilution, resulting in a total DMSO content of 1% and the desired toxin concentration. DMSO was selected for this assay because it is the least inhibitory of the solvents studied by Busby et al. on CYP1A1,[35] the primary enzyme involved in the hydroxylation of AOH and AME.[26] The well-established solubility of the test compounds in DMSO and DMSO-containing aqueous buffers facilitated laboratory work and ensured consistency with existing literature, thereby improving the comparability of results across studies, including those of Pfeiffer and colleagues.[25] In a preliminary investigation, incubation times of 5 and 10 min were chosen because they fall within the linear range of the transformation rate–time relationship, thereby ensuring initial rate conditions (Figure S1). When the selected incubation time (0–10 min) passed, one part of the sample was pipetted into two parts of ice-cold extraction solvent (acetonitrile–methanol, 1:1, v/v) for reaction termination. Subsequently, the samples were placed into the freezer (−20 °C) for at least an hour, centrifuged (15 min, 18,000g, 4 °C), and further diluted in methanol–water (3:7, v/v) prior to LC–MS measurements. In the solvent control, the toxin was substituted with DMSO in the incubation solution. Control incubations were performed without the cofactor NADPH or with heat-inactivated microsomes (98 °C, 10 min, mixing at 300 rpm).
The quantification of selected analytes using external calibration (MS parameters listed in Supporting Information Table S1) was conducted on a high-performance liquid chromatographic system (Dionex UltiMate 3000 UHPLC, Dionex Softron GmbH, Germering, Germany) coupled to a triple quadrupole mass spectrometer (TSQ Vantage, Thermo Fisher Scientific, Waltham, MA, USA), equipped with a heated electrospray ionization (ESI) interface. The applied analytical method is based on Puntscher et al.[28],[36] with slight modifications, which are specified below.
In brief, the Ascentis Express C18 column (10 cm × 2.1 mm, 2.7 μm, Supelco, Munich, DE), equipped with the Phenomenex SecurityGuard (C18 Cartridges, 4 × 2.0 mm ID, Phenomenex Ltd. Deutschland, Aschaffenburg, Germany), served as the stationary phase. Eluent A was aqueous ammonium acetate (5 mM, pH adjusted to 8.6 with a 25% ammonia solution), and eluent B was methanol. During the first minute, the column was kept at 30% eluent B. Subsequently, the eluent B content was linearly raised to 100% within 6 min. Thereafter, the column was washed with 100% eluent B for 1.5 min. Lastly, the column was re-equilibrated at the initial conditions, reaching an overall run time of 10 min. The autosampler compartment was kept at 10 °C, while the column oven temperature was maintained at 30 °C. […]

[2] = Pattern of oxidative metabolites in porcine LMs by HR-MS; type: in vitro ADME, pig; conditions: porcine LMs incubated with AME
Procedure: as §1
Pooled high-resolution MS (HR-MS) samples were analyzed on a Vanquish UHPLC system (Thermo Fisher Scientific, Waltham, MA, USA) connected to a dual-pressure linear trap-quadrupole Orbitrap mass analyzer (Velos ETD, Thermo Fisher Scientific, Waltham, MA, USA). The heated ESI interface (source heater temperature: 400 °C) was operated in both positive and negative modes. The mobile and stationary phases were the same as those for the targeted analysis. The column compartment temperature was kept at 40 °C. A multistep gradient was applied at a flow rate of 0.4 mL/min and started with rinsing the column for 1 min at 10% eluent B. Then, the organic content was linearly raised to 100% until the 11th minute. Subsequently, the column was purged with 100% eluent B for two additional minutes. Finally, the initial eluent composition was reset between minutes 13 and 13.5, followed by a 2 min re-equilibration under these conditions, resulting in a total run time of 15.5 min. Data acquisition and evaluation were performed with the software Skyline (v. 21.1.0.146, MacCoss Lab, Department of Genome Sciences, University of Washington, Seattle, WA, USA), XCalibur (v. 2.2SP1.48), and Chromeleon (v. 7.2.6.; both Thermo Fisher Scientific, Waltham, MA, USA).
As no analytical standards are currently available for the hydroxy (OH) metabolites of AOH and AME, an Alternaria reference mixture containing 4-OH-AOH and 4-OH-AME was used to enable associating peaks with their respective phase I metabolites.

Structure (SMILES): Cc1cc(O)cc2oc(=O)c3c(O)cc(O)cc3c12 [AOH, alternariol]
- microsomal CLint ([1]; male, liver microsomes, Michaelis–Menten model, ratio Vmax/Km): 35.9 µL/min/mg
- microsomal CLint ([1]; male, liver microsomes, linear regression, lower concentration range): 29.9 µL/min/mg
- Km ([1]; male, Sprague–Dawley, liver microsomes, pH 7.4, rat LMs 1 mg protein/mL, NADPH, within 10 min, Michaelis–Menten model, read-out: Km (Michaelis constant)): 78.7 µM
- Concentration decrease ([1]; rat LMs, 1 µM toxin, 5 min): 11%
- Concentration decrease ([1]; rat LMs, 1 µM toxin, 10 min): 19%
- Concentration decrease ([1]; rat LMs, 10 µM toxin, 5 min): 13%
- Concentration decrease ([1]; rat LMs, 10 µM toxin, 10 min): 27%
- Concentration decrease ([1]; rat LMs, 20 µM toxin, 5 min): 14%
- Concentration decrease ([1]; rat LMs, 20 µM toxin, 10 min): 28%
- Concentration decrease ([1]; rat LMs, 50 µM toxin, 5 min): 6%
- Concentration decrease ([1]; rat LMs, 50 µM toxin, 10 min): 9%
- Concentration decrease ([1]; rat LMs, 100 µM toxin, 5 min): 5%
- Concentration decrease ([1]; rat LMs, 100 µM toxin, 10 min): 12%
- Vmax (maximum transformation rate) ([1]; rat LMs, within 10 min, Michaelis–Menten model): 2830 pmol/mg/min
- relative abundance among phase I metabolites (in words) [2]: one of the main metabolites
